According to ChEMBL document CHEMBL4622868, “Design and synthesis of amphiphilic 2-hydroxybenzylphosphonium salts with antimicrobial and antitumor dual action” (Bioorg Med Chem Lett, 2020):
In brackets after ≈: the same amount, converted by molar mass. Activity calls are given as the source filed them. The rule behind the calls is not given here. Non-standard residues stand in square brackets, D forms with d. Residues, ends and D or L forms follow the SMILES beside them. Orn = NCCC[C@H](N)C(=O)O

Tests used:
[1] = system: Staphylococcus aureus; experiment: Bactericidal activity against clinical isolate amoxicillin resistance Staphylococcus aureus; type: functional
[2] = system: Staphylococcus aureus; experiment: Bactericidal activity against clinical isolate amoxicillin and ciprofloxacin resistance Staphylococcus aureus; type: functional
[3] = system: Staphylococcus aureus; experiment: Antibacterial activity against clinical isolate amoxicillin and ciprofloxacin resistance Staphylococcus aureus; type: functional
[4] = system: Staphylococcus aureus; experiment: Antibacterial activity against clinical isolate amoxicillin resistance Staphylococcus aureus; type: functional
[5] = system: Candida albicans; experiment: Antifungal activity against Candida albicans; type: functional
[6] = system: Bacillus cereus; experiment: Antibacterial activity against Bacillus cereus; type: functional
[7] = system: Trichophyton mentagrophytes; experiment: Fungicidal activity against Trichophyton mentagrophytes; type: functional
[8] = system: Trichophyton mentagrophytes; experiment: Antifungal activity against Trichophyton mentagrophytes; type: functional
[9] = system: Bacillus cereus; experiment: Bactericidal activity against Bacillus cereus; type: functional
[10] = system: Staphylococcus aureus; experiment: Antibacterial activity against Staphylococcus aureus ATCC 209p; type: functional
[11] = system: Staphylococcus aureus; experiment: Bactericidal activity against Staphylococcus aureus ATCC 209p; type: functional
[12] = system: Candida albicans; experiment: Fungicidal activity against Candida albicans; type: functional
[13] = Cytotoxicity against human Chang cells; type: cell-based
[14] = system: HepG2; experiment: Cytotoxicity against human HepG2 cells; type: functional, cell-based
[15] = Hemolytic activity against RBC (unknown origin) at 480 uM; type: ADME, cell-based, Erythrocyte; conditions: red blood cells (erythrocytes); read-out: Activity
[16] = system: M-HeLa; experiment: Cytotoxicity against human M-HeLa cells; type: functional, cell-based
[17] = Selectivity index, ratio of IC50 for human Chang cells to IC50 for human M-HeLa cells
[18] = Selectivity index, ratio of IC50 for human Chang cells to IC50 for human HepG2 cells
[19] = Hemolytic activity against RBC (unknown origin) at 40 uM; type: ADME, cell-based, Erythrocyte; conditions: red blood cells (erythrocytes); read-out: Activity
[20] = Hemolytic activity against RBC (unknown origin) at 60 uM; type: ADME, cell-based, Erythrocyte; conditions: red blood cells (erythrocytes); read-out: Activity
[21] = Hemolytic activity against RBC (unknown origin) at 120 uM; type: ADME, cell-based, Erythrocyte; conditions: red blood cells (erythrocytes); read-out: Activity
[22] = system: MCF7; experiment: Cytotoxicity against human MCF7 cells; type: functional, cell-based
[23] = Hemolytic activity against RBC (unknown origin) at 10 uM; type: ADME, cell-based, Erythrocyte; conditions: red blood cells (erythrocytes); read-out: Activity
[24] = Selectivity index, ratio of IC50 for human Chang cells to IC50 for human MCF7 cells
[25] = Hemolytic activity against RBC (unknown origin) at 240 uM; type: ADME, cell-based, Erythrocyte; conditions: red blood cells (erythrocytes); read-out: Activity
[26] = Hemolytic activity against RBC (unknown origin) at 5 uM; type: ADME, cell-based, Erythrocyte; conditions: red blood cells (erythrocytes); read-out: Activity
[27] = Selectivity index, ratio of IC50 for human Chang cells to IC50 for human PANC1 cells
[28] = Biosurfactant activity assessed as Critical micelle concentration of compound by conductometry analysis; type: physicochemical
[29] = Hemolytic activity against RBC (unknown origin) at 20 uM; type: ADME, cell-based, Erythrocyte; conditions: red blood cells (erythrocytes); read-out: Activity
[30] = Biosurfactant activity assessed as critical micelle concentration of compound by tensiometry analysis; type: functional
[31] = system: PANC-1; experiment: Cytotoxicity against human PANC1 cells; type: functional, cell-based
[32] = Hemolytic activity against RBC (unknown origin) at 1 uM; type: ADME, cell-based, Erythrocyte; conditions: red blood cells (erythrocytes); read-out: Activity
[33] = system: Staphylococcus aureus; experiment: Antibacterial activity against Staphylococcus aureus ATCC 209p assessed as increase in crystal violet uptake at 2 uM incubated for 30 mins (reference value: 1.8 %); type: functional

SMILES	MBC [1]	MBC [2]	MIC [3]	MIC [4]	MIC [5]	MIC [6]	MFC [7]	MIC [8]	MBC [9]	MIC [10]	MBC [11]	MFC [12]	IC50 [13]	hemolysis at 480 µM [15]	hemolysis at 40 µM [19]	hemolysis at 60 µM [20]	hemolysis at 120 µM [21]	hemolysis at 10 µM [23]	IC50 ([14]; read-out: IC50)	hemolysis at 240 µM [25]	further results
CC1(C)S[C@@H]2[C@H](NC(=O)[C@H](N)c3ccc(O)cc3)C(=O)N2[C@H]1C(=O)O [AMOXICILLIN]	85.6 µM (≈ 31.3 µg/mL)	94.4 µM (≈ 34.5 µg/mL)	94.4 µM (≈ 34.5 µg/mL)	85.6 µM (≈ 31.3 µg/mL)																	
C=CCCCC[P+](Cc1ccccc1O)(c1ccccc1)c1ccccc1	inactive	inactive	inactive	inactive	inactive	inactive	inactive	inactive	inactive	609 µM	inactive	inactive									
CC/C(=C(\c1ccccc1)c1ccc(OCCN(C)C)cc1)c1ccccc1 [TAMOXIFEN]													46.2 µM								IC50 [14]: 23.4 µM
CCCCCCCCCCCCCCCCCC[P+](Cc1ccccc1O)(c1ccccc1)c1ccccc1.[Cl-]	inactive	inactive	inactive	inactive	inactive	108 µM	inactive	inactive	215 µM	108 µM	215 µM	inactive	69 µM	100%	1.4%	2.5%	15.6%	0%	73 µM	100%	IC50 [16]: 68 µM; Ratio IC50 [17]: 1; Ratio IC50 [18]: 0.94; IC50 [22]: 49 µM; Ratio IC50 [24]: 1.4; hemolysis at 5 µM [26]: 0%; Ratio IC50 [27]: 1.1; CMC [28]: 0.04 mM; hemolysis at 20 µM [29]: 1.2%; CMC [30]: 0.04 mM; IC50 [31]: 65 µM; hemolysis at 1 µM [32]: 0%
CCCCCC[P+](Cc1ccccc1O)(c1ccccc1)c1ccccc1.[Cl-]	151 µM	302 µM	75.6 µM	37.8 µM	606 µM	37.8 µM	inactive	606 µM	152 µM	18.9 µM	37.8 µM	inactive	65.3 µM	4.8%	0.2%	0.3%	0.4%	0%	83 µM	2.5%	IC50 [16]: 50 µM; Ratio IC50 [17]: 1.3; Ratio IC50 [18]: 0.78; IC50 [22]: 86 µM; Ratio IC50 [24]: 0.76; hemolysis at 5 µM [26]: 0%; Ratio IC50 [27]: 0.79; hemolysis at 20 µM [29]: 0.2%; IC50 [31]: 82 µM; hemolysis at 1 µM [32]: 0%
CC(C)C[C@@H]1NC(=O)[C@H](CCCN)NC(=O)[C@H](C(C)C)NC(=O)[C@@H]2CCCN2C(=O)[C@@H](Cc2ccccc2)NC(=O)[C@H](CC(C)C)NC(=O)[C@H](CCCN)NC(=O)[C@H](C(C)C)NC(=O)[C@@H]2CCCN2C(=O)[C@@H](Cc2ccccc2)NC1=O (cyclo(L[dF]PV[Orn]L[dF]PV[Orn]))														100%	98%	99%	100%	1.5%		100%	hemolysis at 5 µM [26]: 0.5%; hemolysis at 20 µM [29]: 24%; hemolysis at 1 µM [32]: 0%
CCCCCCCCCCCCCCCC[P+](Cc1ccccc1O)(c1ccccc1)c1ccccc1.[Cl-]	113 µM	inactive	28.2 µM	14.1 µM	56.6 µM	14.1 µM	inactive	56.6 µM	452 µM	3.4 µM	28.2 µM	inactive	45.2 µM	100%	2.5%	98%	100%	0.9%	12.6 µM	100%	IC50 [16]: 3.2 µM; Ratio IC50 [17]: 14.1; Ratio IC50 [18]: 3.6; IC50 [22]: 13.2 µM; Ratio IC50 [24]: 3.4; hemolysis at 5 µM [26]: 0.3%; Ratio IC50 [27]: 1.8; hemolysis at 20 µM [29]: 2.1%; IC50 [31]: 25.7 µM; hemolysis at 1 µM [32]: 0.3%
CCCCCCC[P+](Cc1ccccc1O)(c1ccccc1)c1ccccc1.[Cl-]	73.2 µM	146 µM	36.6 µM	73.2 µM	586 µM	36.6 µM	inactive	586 µM	146 µM	18.3 µM	18.3 µM	inactive	41.6 µM	3.6%	0.3%	0.3%	0.4%	0.2%	26.3 µM	1.9%	IC50 [16]: 5.5 µM; Ratio IC50 [17]: 7.6; Ratio IC50 [18]: 1.6; IC50 [22]: 32.8 µM; Ratio IC50 [24]: 1.3; hemolysis at 5 µM [26]: 0%; Ratio IC50 [27]: 1.04; hemolysis at 20 µM [29]: 0.3%; IC50 [31]: 40 µM; hemolysis at 1 µM [32]: 0%
CCCCCCCC[P+](Cc1ccccc1O)(c1ccccc1)c1ccccc1.[Cl-]	35.4 µM	142 µM	35.4 µM	17.7 µM	284 µM	17.7 µM	inactive	284 µM	17.7 µM	8.8 µM	8.8 µM	inactive	46.3 µM	8.5%	0.4%	0.6%	2.3%	0%	25.7 µM	4.8%	IC50 [16]: 3.7 µM; Ratio IC50 [17]: 12.5; Ratio IC50 [18]: 1.8; IC50 [22]: 12.5 µM; Ratio IC50 [24]: 3.7; hemolysis at 5 µM [26]: 0%; Ratio IC50 [27]: 3.7; hemolysis at 20 µM [29]: 0%; IC50 [31]: 12.5 µM; hemolysis at 1 µM [32]: 0%
CC(=O)N1CCN(c2ccc(OCC3COC(Cn4ccnc4)(c4ccc(Cl)cc4Cl)O3)cc2)CC1 (stereo not given) [KETOCONAZOLE]					7.3 µM (≈ 3.88 µg/mL)		16.6 µM (≈ 8.82 µg/mL)	7.3 µM (≈ 3.88 µg/mL)				16.6 µM (≈ 8.82 µg/mL)									
CC1COc2c(N3CCN(C)CC3)c(F)cc3c(=O)c(C(=O)O)cn1c23 (stereo not given) [OFLOXACIN]						4.1 µM (≈ 1.48 µg/mL)			8.5 µM (≈ 3.07 µg/mL)	2.4 µM (≈ 0.867 µg/mL)	2.4 µM (≈ 0.867 µg/mL)										
CCCCCCCCCCCCCC[P+](Cc1ccccc1O)(c1ccccc1)c1ccccc1.[Cl-]	28.8 µM	28.8 µM	7.2 µM	7.2 µM	478 µM	3.6 µM	inactive	478 µM	478 µM	3.6 µM	14.8 µM	inactive	42.3 µM	100%	0.3%	74%	100%	0%	6.6 µM	100%	IC50 [16]: 3.5 µM; Ratio IC50 [17]: 12.1; Ratio IC50 [18]: 6.4; IC50 [22]: 6.6 µM; Ratio IC50 [24]: 6.4; hemolysis at 5 µM [26]: 0%; Ratio IC50 [27]: 1.7; hemolysis at 20 µM [29]: 0%; IC50 [31]: 25 µM; hemolysis at 1 µM [32]: 0%
COc1cccc2c1C(=O)c1c(O)c3c(c(O)c1C2=O)C[C@@](O)(C(=O)CO)C[C@@H]3O[C@H]1C[C@H](N)[C@H](O)[C@H](C)O1 [DOXORUBICIN]													3 µM						3.3 µM		IC50 [31]: 3.2 µM
O=C(O)c1cn(C2CC2)c2cc(N3CCNCC3)c(F)cc2c1=O [CIPROFLOXACIN]						0.7 µM (≈ 0.232 µg/mL)			1.5 µM (≈ 0.497 µg/mL)	0.7 µM (≈ 0.232 µg/mL)	1.5 µM (≈ 0.497 µg/mL)										
CCCCCCCCCC[P+](Cc1ccccc1O)(c1ccccc1)c1ccccc1.[Cl-]	16.4 µM	32.8 µM	8.2 µM	8.2 µM	16.6 µM	1.9 µM	16.6 µM	16.6 µM	4.1 µM	1 µM	4.1 µM	16.6 µM	45.7 µM	16.4%	2.3%	2.8%	5.9%	0.8%	12.3 µM	9.6%	IC50 [16]: 3.4 µM; Ratio IC50 [17]: 13.4; Ratio IC50 [18]: 3.7; Activity [33]: 24 - 82.7%; IC50 [22]: 13.2 µM; Ratio IC50 [24]: 3.5; hemolysis at 5 µM [26]: 0%; Ratio IC50 [27]: 1.7; hemolysis at 20 µM [29]: 1.3%; IC50 [31]: 26.3 µM; hemolysis at 1 µM [32]: 0%
